Experimental data reported in ChEMBL document CHEMBL3994563 (Medchemcomm, 2016).
The source made the active and inactive calls. No cut-off for these calls is given here.

How the values were obtained:
[1] = test system: Caco-2; assay: Antiproliferative activity against human Caco2 cells after 48 hrs by MTT assay; assay type: functional, cell-based; conditions: Caco-2, 48 h
[2] = test system: A-375; assay: Antiproliferative activity against human A375 cells after 48 hrs by MTT assay; assay type: functional, cell-based; conditions: A-375, 48 h
[3] = test system: MIA PaCa-2; assay: Antiproliferative activity against human MIAPaCa2 cells after 48 hrs by MTT assay; assay type: functional, cell-based; conditions: MIA PaCa-2, 48 h
[4] = test system: A549; assay: Antiproliferative activity against human A549 cells after 48 hrs by MTT assay; assay type: functional, cell-based; conditions: A549, 48 h
[5] = test system: PC-3; assay: Antiproliferative activity against human PC3 cells after 48 hrs by MTT assay; assay type: functional, cell-based; conditions: PC-3, 48 h
[6] = Antiproliferative activity against human HPDEC after 48 hrs by MTT assay; assay type: cell-based
[7] = test system: MIA PaCa-2; assay: Antiproliferative activity against human MIAPaCa2 cells assessed as reduction in colony formation measured after 10 to 14 days by crystal violet staining based microscopic method; assay type: functional, cell-based
[8] = test system: A-375; assay: Cell cycle arrest in human A375 cells assessed as accumulation at G2/M phase at IC50 after 48 hrs by propidium iodide staining based flow cytometry; assay type: functional
[9] = test system: MIA PaCa-2; assay: Antiproliferative activity against human MIAPaCa2 cells assessed as reduction in cell viability at IC50 after 24 hrs by calcein AM staining based confocal microscopy; assay type: functional
[10] = test system: A-375; assay: Cell cycle arrest in human A375 cells assessed as decrease in G1 population at IC50 after 48 hrs by propidium iodide staining based flow cytometry; assay type: functional
[11] = test system: MIA PaCa-2; assay: Cell cycle arrest in human MIAPaCa2 cells assessed as accumulation at G2/M phase at IC50 after 48 hrs by propidium iodide staining based flow cytometry; assay type: functional
[12] = test system: MIA PaCa-2; assay: Cell cycle arrest in human MIAPaCa2 cells assessed as accumulation at sub-G0/G1 phase at IC50 after 48 hrs by propidium iodide staining based flow cytometry; assay type: functional
[13] = test system: A-375; assay: Antiproliferative activity against human A375 cells assessed as reduction in colony formation measured after 10 to 14 days by crystal violet staining based microscopic method; assay type: functional, cell-based
[14] = test system: MIA PaCa-2; assay: Cell cycle arrest in human MIAPaCa2 cells assessed as decrease in G1 population at IC50 after 48 hrs by propidium iodide staining based flow cytometry; assay type: functional
[15] = test system: A-375; assay: Cell cycle arrest in human A375 cells assessed as accumulation at sub-G0/G1 phase at IC50 after 48 hrs by propidium iodide staining based flow cytometry; assay type: functional
[16] = test system: A-375; assay: Antiproliferative activity against human A375 cells assessed as reduction in cell viability at IC50 after 24 hrs by calcein AM staining based confocal microscopy; assay type: functional

Structure (SMILES) | IC50 [1] | IC50 [2] | IC50 [3] | IC50 [4] | IC50 [5] | IC50 [6] | Activity [7] | Activity [8] | Activity [9] | Activity [10] | Activity [11] | Activity [12] | Activity [13] | Activity [14] | Activity [15] | Activity [16]
O=C(c1ccccc1)c1c(-c2ccccc2)sc2c1CCCC2 | 20.4 µM | 16.3 µM | 18.2 µM | 14 µM | 23.8 µM | – | – | – | – | – | – | – | – | – | – | –
COc1cc(C(=O)c2c(C#Cc3ccc(C)cc3)sc3c2CCCC3)cc(OC)c1OC | 28.3 µM | 22.5 µM | 21.2 µM | 18.9 µM | 37.5 µM | – | – | – | – | – | – | – | – | – | – | –
Cc1ccc(C(=O)c2c(C#Cc3ccccc3)sc(C)c2C)cc1 | > 100 µM | 43.2 µM | > 100 µM | 39.5 µM | 25.4 µM | – | – | – | – | – | – | – | – | – | – | –
Cc1ccc(C(=O)c2c(-c3ccccc3)sc3c2CCCC3)cc1 | 47.6 µM | 27 µM | 36.4 µM | 32.7 µM | 37.5 µM | – | – | – | – | – | – | – | – | – | – | –
Cc1ccc(C#Cc2sc(C)c(C)c2C(=O)c2ccc(C)cc2)cc1 | > 100 µM | > 100 µM | > 100 µM | 45.3 µM | > 100 µM | – | – | – | – | – | – | – | – | – | – | –
Cc1sc(C#Cc2ccccc2)c(C(=O)c2ccccc2)c1C | 34.2 µM | 28 µM | 31.2 µM | 24 µM | 31.5 µM | – | – | – | – | – | – | – | – | – | – | –
Cc1sc(C#Cc2ccccc2)c(C(=O)c2ccc([N+](=O)[O-])cc2)c1C | 25.1 µM | 21.2 µM | 21.9 µM | 19 µM | 33.4 µM | – | – | – | – | – | – | – | – | – | – | –
Cc1sc(-c2ccccc2)c(C(=O)c2ccc([N+](=O)[O-])cc2)c1C | 64.7 µM | > 100 µM | 23.7 µM | 31 µM | > 100 µM | – | – | – | – | – | – | – | – | – | – | –
O=C(c1ccc([N+](=O)[O-])cc1)c1c(-c2ccccc2)sc2c1CCCC2 | 28.1 µM | 20.5 µM | 13.2 µM | 24.2 µM | 14.6 µM | – | – | – | – | – | – | – | – | – | – | –
Cc1ccc(C#Cc2sc3c(c2C(=O)c2ccc(C)cc2)CCCC3)cc1 | 31.5 µM | 30.7 µM | 42 µM | 27.3 µM | 48.2 µM | – | – | – | – | – | – | – | – | – | – | –
Cc1ccc(C#Cc2sc(C)c(C)c2C(=O)c2ccccc2)cc1 | > 100 µM | > 100 µM | 69.8 µM | > 100 µM | 51.4 µM | – | – | – | – | – | – | – | – | – | – | –
Cc1ccc(C(=O)c2c(-c3ccccc3)sc(C)c2C)cc1 | > 100 µM | 51.2 µM | > 100 µM | > 100 µM | 26 µM | – | – | – | – | – | – | – | – | – | – | –
COc1ccc(C(=O)c2c(-c3ccccc3)sc3c2CCCC3)cc1 | 18.6 µM | 5.34 µM | 8.84 µM | 9.42 µM | 23.4 µM | 21.4 µM | – | – | – | – | – | – | – | – | – | –
Cc1ccc(C#Cc2sc3c(c2C(=O)c2ccccc2)CCCC3)cc1 | > 100 µM | > 100 µM | > 100 µM | > 100 µM | > 100 µM | – | – | – | – | – | – | – | – | – | – | –
Cc1sc(-c2ccccc2)c(C(=O)c2ccccc2)c1C | 38 µM | 31.1 µM | > 100 µM | 21.9 µM | 39.5 µM | – | – | – | – | – | – | – | – | – | – | –
Cc1ccc(C#Cc2sc(C)c(C)c2C(=O)c2ccc([N+](=O)[O-])cc2)cc1 | 31.4 µM | 26.4 µM | 79 µM | > 100 µM | 40.6 µM | – | – | – | – | – | – | – | – | – | – | –
Cc1ccc(C#Cc2sc3c(c2C(=O)c2ccc([N+](=O)[O-])cc2)CCCC3)cc1 | 34.2 µM | 13.1 µM | 16.4 µM | 30.1 µM | 21.4 µM | – | – | – | – | – | – | – | – | – | – | –

The remaining compounds from weak to strong by IC50 [1], led by results:

IC50 [1] | IC50 [2] | IC50 [3] | IC50 [4] | IC50 [5] | Structure (SMILES) | IC50 [6] | Activity [7] | Activity [8] | Activity [9] | Activity [10] | Activity [11] | Activity [12] | Activity [13] | Activity [14] | Activity [15] | Activity [16]
18.3 µM | 9.35 µM | 29.4 µM | 13.6 µM | 21.4 µM | COc1ccc(C(=O)c2c(C#Cc3ccccc3)sc(C)c2C)cc1 | – | – | – | – | – | – | – | – | – | – | –
18.1 µM | 7.72 µM | 12 µM | 15.8 µM | 22.1 µM | O=C(c1ccccc1)c1c(-c2ccccc2)sc2c1CCCCC2 | 14.6 µM | – | – | – | – | – | – | – | – | – | –
16.8 µM | 1.9 µM | 35.2 µM | 8.14 µM | 14.5 µM | COc1ccc(C(=O)c2c(C#Cc3ccccc3)sc3c2CCCC3)cc1 | 35.6 µM | – | – | – | – | – | – | – | – | – | –
15.7 µM | 3.71 µM | 24.6 µM | 6.28 µM | 23.4 µM | Cc1ccc(C(=O)c2c(-c3ccccc3)sc3c2CCCCC3)cc1 | 25.8 µM | – | – | – | – | – | – | – | – | – | –
14.8 µM | 4.63 µM | 8.48 µM | 20.2 µM | 23.1 µM | O=C(c1ccccc1)c1c(C#Cc2ccccc2)sc2c1CCCC2 | 18.9 µM | – | – | – | – | – | – | – | – | – | –
10.4 µM | 10.1 µM | 17.2 µM | 11.3 µM | 20.4 µM | Cc1ccc(C(=O)c2c(C#Cc3ccccc3)sc3c2CCCC3)cc1 | – | – | – | – | – | – | – | – | – | – | –
8.26 µM | 3.88 µM | 5.08 µM | 12.9 µM | 15.5 µM | COc1cc(C(=O)c2c(C#Cc3ccccc3)sc3c2CCCC3)cc(OC)c1OC | > 50 µM | – | – | – | – | – | – | – | – | – | –
7.49 µM | 1.17 µM | 4.32 µM | 6.51 µM | 6.49 µM | COc1cc(C(=O)c2c(C#Cc3ccccc3)sc(C)c2C)cc(OC)c1OC | 36.1 µM | – | – | – | – | – | – | – | – | – | –
6.1 µM | 1.07 µM | 5.35 µM | 5.39 µM | 40.1 µM | O=C(c1ccc([N+](=O)[O-])cc1)c1c(-c2ccccc2)sc2c1CCCCC2 | > 50 µM | Active | Active | Active | Active | Active | Active | Active | Active | Active | Active
4.52 µM | 0.81 µM | 3 µM | 2.8 µM | 12.3 µM | O=C(c1ccc([N+](=O)[O-])cc1)c1c(C#Cc2ccccc2)sc2c1CCCC2 | > 50 µM | Active | Active | Active | Active | Active | Active | Active | Active | Active | Active
2.8 µM | 0.68 µM | 2.5 µM | 0.4 µM | 1.9 µM | CC(=O)O[C@H]1C(=O)[C@@]2(C)[C@H]([C@H](OC(=O)c3ccccc3)[C@]3(O)C[C@H](OC(=O)[C@H](O)[C@@H](NC(=O)c4ccccc4)c4ccccc4)C(C)=C1C3(C)C)[C@]1(OC(C)=O)CO[C@@H]1C[C@@H]2O [PACLITAXEL] | – | – | – | – | – | – | – | – | – | – | –
